From PMC11257079 (Environmental science and pollution research international, 2024)
In brackets after ≈: the same amount, converted by molar mass. Where two headings read alike, the source gives them in different places.

Assays:
Hydra vulgaris = Hydra vulgaris assay; format: in vivo; conditions: 92 h, read-out: Morphology EC50
Lemna minor = test: whole plant or invertebrate; format: in vivo; conditions: for EC50 / inhibition at 1.3 µM: Lemna minor, 168 h
Caenorhabditis elegans = test: whole plant or invertebrate; format: in vivo; conditions: for EC50: Caenorhabditis elegans, 48 h
[1] = ref PubChem, NIH; cited from earlier work
[2] = at neutral pH and 20–25°C; ref PubChem, NIH; cited from earlier work
[3] = 168 hour (7 day), 95% confidence interval in brackets
[4] = read-out: Chlorophyll Content EC50
[5] = 48 hour, 95% confidence interval in brackets
[6] = 168 hour (7 day), 95% confidence interval in brackets, listed as pentachlorophenol

CNC(=O)O/N=C/C(C)(C)SC [Aldicarb]
EC50 (Hydra vulgaris): 4.6 µM | Chlorophyll Content EC10 (Lemna minor; [3]): 0.096 (0.017–0.17) mM | Frond Number EC10 (Lemna minor; [3]): 0.40 (0.28–0.52) mM | Surface Area EC10 (Lemna minor; [3]): 1.0 (0–3.9) mM | EC50 (Lemna minor; [4]): 110 µM | EC50 (Lemna minor; read-out: Frond Number EC50): 1260 µM | EC50 (Lemna minor; read-out: Surface Area EC50): 11000 µM | Body Length EC10 (Caenorhabditis elegans; [5]): 0.22 (0–0.62) mM | Nose Touch EC10 (Caenorhabditis elegans; [5]): 0.27 (0–1.6) mM | Survival EC10 (Caenorhabditis elegans; [5]): 0.47 (0.29–0.65) mM | EC50 (Caenorhabditis elegans; read-out: Body Length EC50): 250 µM | EC50 (Caenorhabditis elegans; read-out: Nose Touch EC50): 9600 µM | EC50 (Caenorhabditis elegans; read-out: Survival EC50): 650 µM | LogP [1]: 1.1

Cl[C@H]1[C@H](Cl)[C@@H](Cl)[C@@H](Cl)[C@H](Cl)[C@H]1Cl [Lindane]
EC50 (Hydra vulgaris): 22 µM | Chlorophyll Content EC10 (Lemna minor; [3]): 0.0039 (0.0016–0.0061) mM | Frond Number EC10 (Lemna minor; [3]): 0.0048 (0.0036–0.0060) mM | Surface Area EC10 (Lemna minor; [3]): 0.0040 (0.0021–0.0059) mM | Chlorophyll Content EC10 (Lemna minor; 168 hour (7 day), 95% confidence interval in brackets, listed as lindane): 0.0039 mM | EC50 (Lemna minor; [4]): 6.1 µM | EC50 (Lemna minor; read-out: Frond Number EC50): 7.3 µM | EC50 (Lemna minor; read-out: Surface Area EC50): 11 µM | Body Length EC10 (Caenorhabditis elegans; [5]): 0.048 (0–0.21) mM | Nose Touch EC10 (Caenorhabditis elegans; [5]): 0.020 (0–0.051) mM | Survival EC10 (Caenorhabditis elegans; [5]): 0.055 (0–0.45) mM | EC50 (Caenorhabditis elegans; read-out: Body Length EC50): 540 µM | EC50 (Caenorhabditis elegans; read-out: Nose Touch EC50): 140 µM | EC50 (Caenorhabditis elegans; read-out: Survival EC50): 38 µM | LogP [1]: 3.8 | Solubility in water [2]: 2 µg/mL (≈ 0.00688 mM)

O=C(O)CNCP(=O)(O)O [Glyphosate]
EC50 (Hydra vulgaris): 160 µM | Chlorophyll Content EC10 (Lemna minor; [3]): 0.054 (0–0.30) mM | Frond Number EC10 (Lemna minor; [3]): 0.034 (0.022–0.046) mM | Surface Area EC10 (Lemna minor; [3]): 0.053 (0.036–0.071) mM | EC50 (Lemna minor; [4]): 94 µM | EC50 (Lemna minor; read-out: Frond Number EC50): 57 µM | EC50 (Lemna minor; read-out: Surface Area EC50): 60 µM | Body Length EC10 (Caenorhabditis elegans; [5]): 0.22 (0.13–0.31) mM | Nose Touch EC10 (Caenorhabditis elegans; [5]): 0.15 NA mM | Survival EC10 (Caenorhabditis elegans; [5]): 0.21 NA mM | EC50 (Caenorhabditis elegans; read-out: Body Length EC50): 250 µM | EC50 (Caenorhabditis elegans; read-out: Nose Touch EC50): 1000 µM | EC50 (Caenorhabditis elegans; read-out: Survival EC50): 360 µM | LogP [1]: −4.6 | Solubility in water [2]: 1050 µg/mL (≈ 6.21 mM)

Oc1c(Cl)c(Cl)c(Cl)c(Cl)c1Cl [Pentachlorophenol]
EC50 (Hydra vulgaris): 1.9 µM | Chlorophyll Content EC10 (Lemna minor; [3]): 0.00073 (0.00027–0.0012) mM | Frond Number EC10 (Lemna minor; [3]): 0.0053 (0.0037–0.0070) mM | Surface Area EC10 (Lemna minor; [3]): 0.0086 (0–0.031) mM | Chlorophyll Content EC10 (Lemna minor; [6]): 0.00073 mM | Frond Number EC10 (Lemna minor; [6]): 0.0053 mM | Surface Area EC10 (Lemna minor; [6]): 0.0086 mM | EC50 (Lemna minor; [4]): 2.3 µM | EC50 (Lemna minor; read-out: Frond Number EC50): 8.4 µM | EC50 (Lemna minor; read-out: Surface Area EC50): 88 µM | Body Length EC10 (Caenorhabditis elegans; [5]): 0.21 (0–0.98) mM | Nose Touch EC10 (Caenorhabditis elegans; [5]): 0.17 NA mM | Survival EC10 (Caenorhabditis elegans; [5]): 0.11 (0.099–0.13) mM | Body Length EC10 (Caenorhabditis elegans; 48 hour, 95% confidence interval in brackets, listed as pentachlorophenol): 0.21 mM | EC50 (Caenorhabditis elegans; read-out: Body Length EC50): 180 µM | EC50 (Caenorhabditis elegans; read-out: Nose Touch EC50): 190 µM | EC50 (Caenorhabditis elegans; read-out: Survival EC50): 170 µM

CON(C)C(=O)Nc1ccc(Cl)c(Cl)c1 [Linuron]
EC50 (Hydra vulgaris): 63 µM | Chlorophyll Content EC10 (Lemna minor; [3]): 0.00010 (0.000069–0.00013) mM | Frond Number EC10 (Lemna minor; [3]): 0.00015 (0.00013–0.00016) mM | Surface Area EC10 (Lemna minor; [3]): 0.00014 (0.00013–0.00016) mM | Chlorophyll Content EC10 (Lemna minor; 168 hour (7 day), 95% confidence interval in brackets, listed as linuron): 0.00010 mM | EC50 (Lemna minor; [4]): 0.15 µM | EC50 (Lemna minor; read-out: Frond Number EC50): 0.18 µM | EC50 (Lemna minor; read-out: Surface Area EC50): 0.18 µM | Body Length EC10 (Caenorhabditis elegans; [5]): 0.036 (0.0030–0.070) mM | Nose Touch EC10 (Caenorhabditis elegans; [5]): 0.056 (0.029–0.083) mM | Survival EC10 (Caenorhabditis elegans; [5]): 0.29 (0–1.3) mM | EC50 (Caenorhabditis elegans; read-out: Body Length EC50): 220 µM | EC50 (Caenorhabditis elegans; read-out: Nose Touch EC50): 150 µM | EC50 (Caenorhabditis elegans; read-out: Survival EC50): 650 µM

C[n+]1ccc(-c2cc[n+](C)cc2)cc1 [Paraquat]
EC50 (Hydra vulgaris): 44 µM | Chlorophyll Content EC10 (Lemna minor; [3]): 0.00014 (0.00012–0.00016) mM | Frond Number EC10 (Lemna minor; [3]): 0.000090 (0.000080–0.000010) mM | Surface Area EC10 (Lemna minor; [3]): 0.000098 (0.000060–0.000013) mM | EC50 (Lemna minor; [4]): 0.16 µM | EC50 (Lemna minor; read-out: Frond Number EC50): 0.12 µM | EC50 (Lemna minor; read-out: Surface Area EC50): 0.11 µM | Body Length EC10 (Caenorhabditis elegans; [5]): 0.086 (0–0.63) mM | Nose Touch EC10 (Caenorhabditis elegans; [5]): 0.50 (0–1.3) mM | Survival EC10 (Caenorhabditis elegans; [5]): 0.044 (0–0.21) mM | EC50 (Caenorhabditis elegans; read-out: Body Length EC50): 1700 µM | EC50 (Caenorhabditis elegans; read-out: Nose Touch EC50): 860 µM | EC50 (Caenorhabditis elegans; read-out: Survival EC50): 50 µM | LogP [1]: 1.7 | Solubility in water [2]: >620000 µg/mL

Oc1c(Cl)cc(Cl)cc1Cl [2,4,6-trichlorophenol]
EC50 (Lemna minor; [4]): 4 µM | EC50 (Lemna minor; read-out: Frond Number EC50): 3.6 µM | inhibition at 1.3 µM (Lemna minor; read-out: Inhibition of frond number): -3 ± 7% | inhibition at 1.3 µM (Lemna minor; read-out: Inhibition of surface area): 5.8 ± 0.9% | EC50 (Lemna minor; read-out: Surface Area EC50): 3.5 µM | Chlorophyll Content EC10 (Lemna minor; in vivo): 0.0011 (0.0003–0.0018) mM | Decrease in chlorophyll content (Lemna minor; in vivo): 15 ± 3% | Frond Number EC10 (Lemna minor; in vivo): 0.0019 (0.0015–0.0023) mM | Surface Area EC10 (Lemna minor; in vivo): 0.0016 (0.0011–0.0021) mM | EC50 (Caenorhabditis elegans; read-out: Body Length EC50): 180 µM | EC50 (Caenorhabditis elegans; read-out: Nose Touch EC50): 250 µM | EC50 (Caenorhabditis elegans; read-out: Survival EC50): 230 µM | Body Length EC10 (Caenorhabditis elegans; in vivo): 0.12 (0.094–0.14) mM | Decrease in nematode survival (Caenorhabditis elegans; in vivo): 2.6 ± 4% | Impairment to behavior (nose touch response) (Caenorhabditis elegans; in vivo): 16 ± 3% | Impairment to body length (Caenorhabditis elegans; in vivo): 5.9 ± 4% | Nose Touch EC10 (Caenorhabditis elegans; in vivo): 0.12 (0.11–0.15) mM | Survival EC10 (Caenorhabditis elegans; in vivo): 0.19 (0.15–0.23) mM

CCOP(=S)(OCC)Oc1cc(C)nc(C(C)C)n1 [Diazinon]
EC50 (Hydra vulgaris): 55 µM | Chlorophyll Content EC10 (Lemna minor; [3]): 0.016 (0–0.071) mM | Frond Number EC10 (Lemna minor; [3]): 0.030 (0–0.140) mM | Surface Area EC10 (Lemna minor; [3]): 0.031 (0–0.12) mM | Chlorophyll Content EC10 (Lemna minor; 168 hour (7 day), 95% confidence interval in brackets, listed as diazinon): 0.0016 mM | EC50 (Lemna minor; [4]): 260 µM | EC50 (Lemna minor; read-out: Frond Number EC50): 330 µM | EC50 (Lemna minor; read-out: Surface Area EC50): 570 µM | Body Length EC10 (Caenorhabditis elegans; [5]): 0.016 (0.0083–0.024) mM | Nose Touch EC10 (Caenorhabditis elegans; [5]): 0.080 (0.068–0.093) mM | Survival EC10 (Caenorhabditis elegans; [5]): 0.057 (0.052–0.061) mM | EC50 (Caenorhabditis elegans; read-out: Body Length EC50): 77 µM | EC50 (Caenorhabditis elegans; read-out: Nose Touch EC50): 120 µM | EC50 (Caenorhabditis elegans; read-out: Survival EC50): 71 µM

CCCN(CCC)c1c([N+](=O)[O-])cc(C(F)(F)F)cc1[N+](=O)[O-] [Trifluralin]
EC50 (Hydra vulgaris): 10 µM | Chlorophyll Content EC10 (Lemna minor; [3]): 0.000042 (0–0.00015) mM | Frond Number EC10 (Lemna minor; [3]): 0.00037 (0–0.00075) mM | Surface Area EC10 (Lemna minor; [3]): 0.00062 (0–0.0014) mM | Chlorophyll Content EC10 (Lemna minor; 168 hour (7 day), 95% confidence interval in brackets, listed as trifluralin): 0.000042 mM | EC50 (Lemna minor; [4]): 4.6 µM | EC50 (Lemna minor; read-out: Frond Number EC50): 1.8 µM | EC50 (Lemna minor; read-out: Surface Area EC50): 1.4 µM | Body Length EC10 (Caenorhabditis elegans; [5]): 0.19 (0–1.2) mM | Nose Touch EC10 (Caenorhabditis elegans; [5]): 0.19 (0–0.59) mM | Survival EC10 (Caenorhabditis elegans; [5]): 0.13 (0.13–0.14) mM | Nose Touch EC10 (Caenorhabditis elegans; 48 hour, 95% confidence interval in brackets, listed as trifluralin): 0.19 mM | EC50 (Caenorhabditis elegans; read-out: Body Length EC50): 180 µM | EC50 (Caenorhabditis elegans; read-out: Nose Touch EC50): 220 µM | EC50 (Caenorhabditis elegans; read-out: Survival EC50): 140 µM
